Source: PMC3725995 (Bioorganic & medicinal chemistry letters, 2010)
Where two headings read alike, the source gives them in different places.

How the values were obtained:
[1] = target: system LAT1 transporter of the blood–brain barrier (Rattus norvegicus, UniProt Q63016); assay: in situ rat brain perfusion: inhibition of L-[14C]-leucine uptake into rat brain; conditions: in vivo
system LAT1 transporter = conditions: cited from earlier work; for Ki: read-out: Ki for the system L transporter
[2] = cited from earlier work
[3] = cited from earlier work; remark: listed apart in the source
[4] = read-out: Km for system LAT1 transporter

system LAT1 transporter of the blood–brain barrier, sequence (Q63016 whole entry, the tested form may be a part): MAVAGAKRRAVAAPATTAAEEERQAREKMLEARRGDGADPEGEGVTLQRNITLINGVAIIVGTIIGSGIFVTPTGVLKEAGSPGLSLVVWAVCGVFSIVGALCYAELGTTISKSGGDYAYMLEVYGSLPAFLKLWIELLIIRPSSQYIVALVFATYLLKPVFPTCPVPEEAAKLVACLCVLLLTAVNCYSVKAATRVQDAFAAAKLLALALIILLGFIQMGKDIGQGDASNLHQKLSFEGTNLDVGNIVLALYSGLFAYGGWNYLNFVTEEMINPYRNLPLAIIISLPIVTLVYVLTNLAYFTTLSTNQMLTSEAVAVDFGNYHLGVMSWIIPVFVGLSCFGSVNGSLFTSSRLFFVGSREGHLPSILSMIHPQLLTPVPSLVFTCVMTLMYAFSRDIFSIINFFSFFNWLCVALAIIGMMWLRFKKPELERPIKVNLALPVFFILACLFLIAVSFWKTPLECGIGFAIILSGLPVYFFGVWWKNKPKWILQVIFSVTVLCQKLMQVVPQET
system LAT1 transporter of the blood–brain barrier, sequence (Q794F9 whole entry partner, the tested form may be a part): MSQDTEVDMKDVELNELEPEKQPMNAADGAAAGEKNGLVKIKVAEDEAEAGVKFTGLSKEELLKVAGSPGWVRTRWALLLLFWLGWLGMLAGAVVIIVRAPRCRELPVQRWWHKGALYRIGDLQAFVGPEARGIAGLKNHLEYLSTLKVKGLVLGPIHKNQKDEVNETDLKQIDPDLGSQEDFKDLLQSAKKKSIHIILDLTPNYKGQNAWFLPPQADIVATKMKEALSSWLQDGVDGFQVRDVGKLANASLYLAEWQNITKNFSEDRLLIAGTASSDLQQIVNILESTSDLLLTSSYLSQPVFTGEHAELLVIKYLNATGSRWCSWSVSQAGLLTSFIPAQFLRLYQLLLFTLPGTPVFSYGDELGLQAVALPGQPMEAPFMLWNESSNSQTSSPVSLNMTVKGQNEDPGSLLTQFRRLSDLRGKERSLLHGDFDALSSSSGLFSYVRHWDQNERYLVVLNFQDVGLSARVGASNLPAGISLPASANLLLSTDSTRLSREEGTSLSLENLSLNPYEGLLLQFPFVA

Row | SMILES | times lower affinity for the system LAT1 transporter than 5c [1] | Km (system LAT1 transporter; [4]) | Ki (system LAT1 transporter) | further results
1 | NC1(C(=O)O)CC2CC1c1cc(N(CCCl)CCCl)ccc12 (mixture of isomers) [compound 7, (±)-2-endo-amino-bis(2-chloroethyl)-7′-aminobenzobicyclo[2.2.1]heptane-2-exo-carboxylic acid] | 25 times |  |  | 
2 | NC1(C(=O)O)CCc2ccccc2C1 (racemic) [compound 3, DL-2-amino-1,2,3,4,-tetrahydronaphthoic acid, reference compound] |  | 7.1 µM |  | 
3 | NC1(C(=O)O)CCc2c(cccc2N(CCCl)CCCl)C1 (centres unmarked) [5a] | 100 times |  | ~25 µM | 
4 | NC1(C(=O)O)CCc2ccc(N(CCCl)CCCl)cc2C1 (centres unmarked) [5c] |  | 0.19 µM | ~0.2 µM | in vitro antitumor activity compared to melphalan [2]: enhanced; myelosuppressive activity compared to melphalan [3]: reduced; Vmax of uptake into brain by blood–brain barrier system LAT1 transporter (system LAT1 transporter): 0.26 nmol/min/g
5 | N[C@@H](Cc1ccc(N(CCCl)CCCl)cc1)C(=O)O [compound 2, Melphalan, reference compound] |  |  |  | Km (system LAT1 transporter; read-out: Km for system LAT1, estimated): 90 to 150 µM
6 | NC1(C(=O)O)CC2CCC1C2 (centres unmarked) [compound 4, reference compound] |  |  |  | affinity for the system LAT1 transporter (system LAT1 transporter; in vivo): good affinity
